**Q.** What does the source list for `CC(CN1c2ccccc2S(=O)(=O)c2ccccc21)N(C)C.Cl` (centres undefined)?
**A.** solubility (mole fraction) (in DMF, 278.2 K): 0.00381; solubility (mole fraction) (in DMF, 283.2 K): 0.00418; solubility (mole fraction) (in DMF, 288.27 K): 0.00448; solubility (mole fraction) (in DMF, 293.18 K): 0.00474; solubility (mole fraction) (in DMF, 298.17 K): 0.00514; solubility (mole fraction) (in DMF, 303.19 K): 0.00554; solubility (mole fraction) (in DMF, 308.23 K): 0.00601; solubility (mole fraction) (in DMF, 313.17 K): 0.00658; solubility (mole fraction) (in DMF, 318.23 K): 0.00716; solubility (mole fraction) (in DMF, 323.18 K): 0.00783; solubility (mole fraction) (in NMP, 278.16 K): 0.00641; solubility (mole fraction) (in NMP, 283.2 K): 0.00692; solubility (mole fraction) (in NMP, 288.24 K): 0.00747; solubility (mole fraction) (in NMP, 293.16 K): 0.00791; solubility (mole fraction) (in NMP, 298.17 K): 0.00843; solubility (mole fraction) (in NMP, 308.17 K): 0.00975; solubility (mole fraction) (in NMP, 313.21 K): 0.0104; solubility (mole fraction) (in NMP, 318.23 K): 0.0111; solubility (mole fraction) (in NMP, 323.27 K): 0.0119; solubility (mole fraction) (in acetic acid, 293.16 K): 0.00208; solubility (mole fraction) (in acetic acid, 298.18 K): 0.00277; solubility (mole fraction) (in acetic acid, 303.18 K): 0.00347; solubility (mole fraction) (in acetic acid, 308.2 K): 0.00433; solubility (mole fraction) (in acetic acid, 313.17 K): 0.00548; solubility (mole fraction) (in acetic acid, 318.22 K): 0.00689; solubility (mole fraction) (in acetic acid, 328.23 K): 0.01; solubility (mole fraction) (in acetic acid, 333.19 K): 0.0123; solubility (mole fraction) (in acetic acid, 338.2 K): 0.0149; solubility (mole fraction) (in acetone, 278.2 K): 0.000103; solubility (mole fraction) (in acetone, 283.16 K): 0.000124; solubility (mole fraction) (in acetone, 288.16 K): 0.00015; solubility (mole fraction) (in acetone, 293.17 K): 0.000177; solubility (mole fraction) (in acetone, 298.18 K): 0.000199; solubility (mole fraction) (in acetone, 303.17 K): 0.000216; solubility (mole fraction) (in acetone, 308.21 K): 0.000237; solubility (mole fraction) (in acetone, 313.2 K): 0.000258; solubility (mole fraction) (in acetone, 318.18 K): 0.000278; solubility (mole fraction) (in acetone, 323.17 K): 0.000298; solubility (mole fraction) (in ethanol, 278.16 K): 0.000269; solubility (mole fraction) (in ethanol, 283.21 K): 0.000296; solubility (mole fraction) (in ethanol, 288.22 K): 0.000322; solubility (mole fraction) (in ethanol, 293.18 K): 0.000365; solubility (mole fraction) (in ethanol, 298.21 K): 0.000419; solubility (mole fraction) (in ethanol, 303.22 K): 0.0005; solubility (mole fraction) (in ethanol, 308.18 K): 0.000589; solubility (mole fraction) (in ethanol, 313.17 K): 0.000686; solubility (mole fraction) (in ethanol, 318.2 K): 0.000829; solubility (mole fraction) (in methanol, 278.17 K): 0.000759; solubility (mole fraction) (in methanol, 283.22 K): 0.000925; solubility (mole fraction) (in methanol, 288.19 K): 0.00112; solubility (mole fraction) (in methanol, 293.26 K): 0.00137; solubility (mole fraction) (in methanol, 298.17 K): 0.00156; solubility (mole fraction) (in methanol, 303.19 K): 0.00185; solubility (mole fraction) (in methanol, 308.21 K): 0.00225; solubility (mole fraction) (in methanol, 313.21 K): 0.00284; solubility (mole fraction) (in methanol, 318.18 K): 0.0034; solubility (mole fraction) (in water, 278.28 K): 0.00136; solubility (mole fraction) (in water, 283.27 K): 0.00163; solubility (mole fraction) (in water, 288.27 K): 0.002; solubility (mole fraction) (in water, 293.24 K): 0.00246; solubility (mole fraction) (in water, 298.18 K): 0.00302; solubility (mole fraction) (in water, 303.18 K): 0.00379; solubility (mole fraction) (in water, 308.16 K): 0.00484; solubility (mole fraction) (in water, 313.22 K): 0.00625
